# Patent US20240400549A1, “COMPOUNDS AND THEIR USES FOR TREATING NEURODEGENERATIVE DISEASE” (Academia Sinica, priority 2021, published 2024)
# Peptide text beside a SMILES is read from it. * marks the point of attachment. Cbz = O=C(OCc1ccccc1)*
# Legend:
# [1] = molecular target: T1, 109Q-HTTEX1 (Homo sapiens, UniProt P42858); assay: Western blot of polyQ-expanded huntingtin (109Q-HTTEX1) in transfected Neuro-2a cells; type: cell-based; conditions: 5 μM, 24 h
# T1 construct: the polyQ-expanded N terminus of HTT translated from the exon 1 of human huntingtin gene; expressed in transfected cells; host or cells: Neuro-2a (mouse neuroblastoma)
# Method: (§1) Mouse neuroblastoma cell line (Neuro-2a) were cultured in Dulbecco's modified Eagle's medium (DMEM; Gibco) containing 2×10^−3 M glutamine, 10% heat inactivated fetal bovine serum (FBS), and 100 U mL^−1 penicillin-streptomycin (Gibco) at 37° C. in a humidified incubator containing 5% CO2. Alternatively, Neuro-2a cells were cultured in Dulbecco's modified Eagle's medium (DMEM; Invitrogen, Carlsbad, CA, USA) supplemented with 10% heat-inactivated FBS. The cells were incubated in a humidified incubator at 37° C. with 10% CO2. Transfection was performed using T-Pro NTR II (Ji-Feng Biotechnology, Taiwan) following the manufacturer's protocol.
# (§2) Alternatively, cells were lysed with RIPA lysis buffer (150 mM sodium chloride, 1% Nonidet P-40, 0.5% sodium deoxycholate, 0.1% SDS, and 50 mM Tris-HCl, pH 8.0) containing 1× protease inhibitor cocktail and 1× phosphatase inhibitor cocktail to prepare total lysates, which were rotated at 4° C. for 1 h. Protein concentrations were determined with a Bio-Rad protein assay kit (Bio-Rad, Hercules, CA, USA). Protein samples were separated on 8-10% SDS-PAGE gels and electrophoretically transferred onto PVDF membranes (Millipore, Billerica, MA, USA). The membranes were incubated overnight at 4° C. with the following primary antibodies: anti-GAPDH (GeneTex; GTX627408), anti-HTT (Habel; a custom antibody raised against protein translated from the exon 1 of HTT (designated HTTEX1), anti-pTau (MC1, a generous gift from Dr. Peter Davies, the Feinstein Institute for Medical Research, New York, USA), and anti-VCP (BD, East Rutherford, NJ, USA). Immunoreactive bands were detected by enhanced chemiluminescence (ECL; Millipore) and recorded using the UVP ChemiDoc-It Imaging System (Upland, CA, USA).
# In this example, the effect of the present compound on huntingtin (HTT) protein (a protein known to cause Huntington's disease) was investigated. To this purpose, Neuro-2a cells were transiently transfected with pcDNA3-109Q-HTTEX1 (i.e., the polyQ-expanded N terminus of HTT translated from the exon 1 of human huntingtin gene (designated 109Q-HTTEX1)) and then exposed to the indicated compound (5 μM) for additional 24 h. Total protein lysates were harvested for Western blot analyses, and results are depicted in FIG. 3.
# [2] = molecular target: T2, pathogenic tau protein (pTau) (Homo sapiens, UniProt P10636, P618L); assay: Western blot of pathogenic tau protein (pTau) in SH-SY5Y-Tau-P301L cells; type: cell-based; conditions: 5 μM, 24 h, doxycycline-induced SH-SY5Y-Tau-P301L cells
# T2 construct: expressed in transfected cells; host or cells: SH-SY5Y-Tau-P301L (doxycycline-inducible)
# Method: The SH-SY5Y-Tau-P301L cell line (SY5Y-Tau) were cultured in DMEM supplemented with 10% FBS and incubated in a humidified incubator at 37° C. with 5% CO2. To induce the expression of pathogenic Tau (pTau), SY5Y-Tau cells were seeded at 1×10^5/60-mm plate, cultured for 2-3 days to reach 70% confluence, and treated with doxycycline (1 μg/mL) for 24 hr to induce the expression of pTau.
# as §2
# Hyperphosphorylated tau protein is a major hallmark of Alzheimer's disease and many other neurological disorders (including Huntington's disease). To investigate the effects of the compounds of formula (I) or formula (II) on the pathogenic tau protein (designated pTau), SH-SY5Y-Tau-P301L cells were treated with doxycycline (1 μg/mL) (which induced the expression of pathogenic tau protein (pTau), and the indicated compound (5 μM) for 24 h. Total protein lysates were then harvested and analyzed by Western blot analyses. Results are illustrated in FIG. 4.
# [3] = tested on: Neuro-2a cells; assay: Cytotoxicity of compounds in Neuro-2a cells; type: cell-based, mouse; conditions: for cytotoxicity as compared to that of compound II-1d: 5 or 10 μM concentration, Neuro-2a cells
# [4] = molecular target: T3, eGFP-C-TDP-43 aggregates (Homo sapiens, UniProt Q13148); assay: Filter trap assay of insoluble eGFP-C-TDP-43 aggregates in transfected Neuro-2a cells; type: cell-based, mouse; conditions: 5 μM
# T3 construct: expressed in transfected cells; host or cells: Neuro-2a (mouse neuroblastoma)
# Method: as §1
# Neuro-2a cells were seeded in a 6-well plate at a concentration of 2×10^5 cells/well and incubated overnight. Once the cells were attached, Neuro-2a cells were transfected with the eGFP-C-TDP-43 plasmid (2.2 μg) using Turbofect transfection reagent (Invitrogen) and treated with or without 5 μM test compound after 2 h transfection. After incubation for another 22 h, the transfected cells were harvested by RIPA buffer containing protease inhibitor (Roche) and sonicated on ice for 10 seconds. Extracts were centrifuged at 14000 rpm for 10 min at 4° C., followed by measurement of protein concentration using a bicinchoninic acid (BCA) assay. […] Aggregated eGFP-C-TDP-43 protein trapped by the CA membranes was determined by immunoblotting. […]
# In this example, the effect of the present compound on C-TDP-43 aggregates was investigated. To this purpose, the eGFP-TDP-43208-414 (hereafter referred as eGFP-C-TDP-43) expressed Neuro-2a cells were first treated with tested compound (e.g., any one of the compounds of formula (I) or (II), then, cells were lysed and the insoluble eGFP-C-TDP43 aggregates were quantified by use of filter trap assay as described in the “Materials and Methods” section; for comparison, slot blot assay was also performed by using the nitrocellulose (NC) membrane for the loading control. Results are depicted in FIG. 1.
# [5] = tested on: YFP—C-TDP-43 transgenic C. elegans; assay: Swimming (thrashing) body bend assay of YFP-C-TDP-43 transgenic C. elegans; type: in vivo; conditions: YFP—C-TDP-43 C. elegans, swimming in buffer
# Method: The YFP—C-TDP-43 transgenic strains of C. elegans generated in this study were IW33 [Psnb-l:C-TDP-43219-414-YFP (iwIs22)]. The strains of nematodes were maintained with standard procedure and grown at 20° C. as previously described (Zhang, T. et al. Hum. Mol. Genet. 2011, 20 (10), 1952). For all assays, the transgenic young two-day (80 hours) adults were used. For larvae synchronization, the eggs were isolated by lysing gravid adult worms with freshly prepared bleaching solution (0.5 mL 5 M NaOH with 1 mL bleach) and incubated in S buffer (recipe) for overnight. For drug treatments, compound I-1b and/or DMSO were solely or along with MG132 applied to fresh NGM plates prior to installing the synchronized C. elegans. The body bends of the corresponding treatment in a duration of 30 seconds of the various strains were documented through SMZ800N stereomicroscope equipped with a CCD camera (Nikon). A body bend was counted as the head of C. elegans travels across the mid-body in 1×PBS buffer. Then, the bending videos of C. elegans were analyzed by ImageJ with the wrMTrck plugin (Nussbaum-Krammer, C. I. et al. J. Vis. Exp. 2015, (95), 52321). […]
# As YFP—C-TDP-43 readily forms cytosolic aggregates in nervous system, the YFP—C-TDP-43 aggregates both in the neuron processes and neuron bodies of the ventral cord were monitored. […]
# T3 sequence (Q13148 208-414 limits assumed): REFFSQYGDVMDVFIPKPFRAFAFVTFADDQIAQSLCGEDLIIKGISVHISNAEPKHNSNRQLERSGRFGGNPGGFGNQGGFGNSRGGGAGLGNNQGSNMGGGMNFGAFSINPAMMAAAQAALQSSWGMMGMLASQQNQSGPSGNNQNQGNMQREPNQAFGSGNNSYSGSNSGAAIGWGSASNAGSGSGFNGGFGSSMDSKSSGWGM
# T2 sequence (P10636 1-441 isoform P10636-8 P301L): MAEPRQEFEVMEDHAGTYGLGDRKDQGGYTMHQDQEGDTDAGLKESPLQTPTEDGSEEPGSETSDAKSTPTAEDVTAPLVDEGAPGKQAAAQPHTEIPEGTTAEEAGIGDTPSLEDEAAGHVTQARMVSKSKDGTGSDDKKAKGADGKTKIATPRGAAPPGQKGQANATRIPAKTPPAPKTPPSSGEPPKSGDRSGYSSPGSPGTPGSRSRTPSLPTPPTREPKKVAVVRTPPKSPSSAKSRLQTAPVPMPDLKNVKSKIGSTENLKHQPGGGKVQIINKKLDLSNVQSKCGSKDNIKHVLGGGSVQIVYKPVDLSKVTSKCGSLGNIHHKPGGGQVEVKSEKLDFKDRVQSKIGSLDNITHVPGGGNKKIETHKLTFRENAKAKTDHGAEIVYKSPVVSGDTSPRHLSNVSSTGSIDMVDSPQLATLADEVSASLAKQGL
# T1 sequence (P42858 with tags, fused parts or gaps): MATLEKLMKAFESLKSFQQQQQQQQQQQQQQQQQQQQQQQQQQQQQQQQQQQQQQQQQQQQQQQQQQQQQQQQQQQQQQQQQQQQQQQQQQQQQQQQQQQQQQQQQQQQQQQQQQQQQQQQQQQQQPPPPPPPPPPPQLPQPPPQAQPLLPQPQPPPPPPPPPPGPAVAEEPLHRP
reduction of the expression of 109Q-HTTEX1 [1],reduction of the expressed level of pTau [2],level of C-TDP-43 aggregate as compared to the control group [4],Compound,also measured
,,significantly reduce,"CNc1ccc(/C=C/c2ccc(OCCCCCCCCCCNc3cccc4c3C(=O)N(C3CCC(=O)NC3=O)C4=O)nc2)cc1 (stereo not drawn) [II-2d, (E)-2-(2,6-dioxopiperidin-3-yl)-4-((10-((5-(4-(methylamino)styryl)pyridin-2-yl)oxy)decyl)amino)isoindoline-1,3-dione]",cytotoxicity as compared to that of compound II-1d [3]: lower toxicity
approximately 50%,approximately 40%,significantly reduce,"CNc1ccc(/C=C/c2ccc(OCCOCCOCCNc3cccc4c3C(=O)N(C3CCC(=O)NC3=O)C4=O)nc2)cc1 (stereo not drawn) [II-1d, (E)-2-(2,6-dioxopiperidin-3-yl)-4-((2-(2-(2-((5-(4-(methylamino)styryl)pyridin-2-yl)oxy)ethoxy)ethoxy)ethyl)amino)isoindoline-1,3-dione]",
20%,,significantly reduce,"CNc1ccc(/C=C/c2ccc(OCCOCCOCCNc3cccc4c3C(=O)N(C3CCC(=O)NC3=O)C4=O)nc2)cc1 (stereo not drawn) [II-1b, (E)-2-(2,6-dioxopiperidin-3-yl)-4-((2-(2-(2-((5-(4-(methylamino)styryl)pyridin-2-yl)oxy)ethoxy)ethoxy)ethyl)amino)isoindoline-1,3-dione]",cytotoxicity as compared to that of compound II-1d [3]: less cytotoxicity; reduction of the expressed level of pTau ([2]; listed as IT-1b): negligible effect

# Continued, compound first:
Compound,reduction of the expression of 109Q-HTTEX1 [1],reduction of the expressed level of pTau [2],level of C-TDP-43 aggregate as compared to the control group [4],also measured
"CN(C)c1ccc(-c2nc3ccc(OCCOCCOCCOCCNc4cccc5c4C(=O)N(C4CCC(=O)NC4=O)C5=O)cc3s2)cc1 (stereo not drawn) [I-1c, 4-((2-(2-(2-(2-((2-(4-(dimethylamino)phenyl)benzo[d]thiazol-6yl)oxy)ethoxy)ethoxy)ethoxy)ethyl)amino)-2-(2,6-dioxopiperidin-3-yl)isoindoline-1,3-dione]",approximately 50%,approximately 40%,,
"CC(C)C[C@@H](C=O)NC(=O)[C@H](CC(C)C)NC(=O)[C@H](CC(C)C)NC(=O)OCc1ccccc1 [MG132, reference compound] (Cbz-Leu-Leu-Leu-aldehyde)",,,,bending frequency (in words) [5]: slow bending frequency
"CN(C)c1ccc(-c2nc3ccc(OCCOCCNc4cccc5c4C(=O)N(C4CCC(=O)NC4=O)C5=O)cc3s2)cc1 (stereo not drawn) [I-1a, 4-((2-(2-((2-(4-(dimethylamino)phenyl)benzo[d]thiazol-6-yl)oxy)ethoxy)ethyl)amino)-2-(2,6-dioxopiperidin-3-yl)isoindoline-1,3-dione]",,,,cytotoxicity comparing to mock group of Neuro-2a cells ([3]; 5 μM concentration): neglectable cytotoxicity
"CN(C)c1ccc(-c2nc3ccc(OCCOCCOCCOCCOCCNc4cccc5c4C(=O)N(C4CCC(=O)NC4=O)C5=O)cc3s2)cc1 (stereo not drawn) [I-1d, 4-((14-((2-(4-(dimethylamino)phenyl)benzo[d]thiazol-6-yl)oxy)-3,6,9,12-tetraoxatetradecyl)amino)-2-(2,6-dioxopiperidin-3-yl)isoindoline-1,3-dione]",approximately 50%,approximately 40%,,
